ChEMBL document CHEMBL1131798, “Synthesis and cytotoxicity of analogues of the antibiotic BE 10988 inhibitors of DNA topoisomerase II” (Bioorg Med Chem Lett, 1999)

Test system: L1210
Experiment: Antiproliferative activity using the murine L1210 leukemia cell line
Assay type: functional, cell-based
Settings: Mus musculus

| Compound | IC50 |
| --- | --- |
| COc1ccc(OC)c2c1c(-c1nc(C(N)=O)cs1)cn2C | > 10 µM |
| COc1ccc(OC)c2c1c(C(=O)NCCN1CCOCC1)cn2C | > 100 µM |
| Cn1cc(-c2nc(C(N)=O)cs2)c2c1C(=O)C=CC2=O | 0.8 µM |
| Cn1cc(C(=O)NCCN2CCOCC2)c2c1C(=O)C=CC2=O | 6.5 µM |
